Measured values taken from ChEMBL document CHEMBL2016457, “Discovery of potent and orally bioavailable 17β-hydroxysteroid dehydrogenase type 3 inhibitors” (Bioorg Med Chem, 2012).
Calls of active or inactive are those of the source.

How the values were obtained:
[1] = molecular target: T1, Estrogen receptor (Homo sapiens) (UniProt P03372); assay: Antagonist activity at human ERalpha receptor expressed in human HeLa cells assessed as inhibition of DHT-induced response after 40 hrs by luciferase/beta-galactosidase-based reporter gene assay; format: functional, cell-based
T1 sequence (whole entry): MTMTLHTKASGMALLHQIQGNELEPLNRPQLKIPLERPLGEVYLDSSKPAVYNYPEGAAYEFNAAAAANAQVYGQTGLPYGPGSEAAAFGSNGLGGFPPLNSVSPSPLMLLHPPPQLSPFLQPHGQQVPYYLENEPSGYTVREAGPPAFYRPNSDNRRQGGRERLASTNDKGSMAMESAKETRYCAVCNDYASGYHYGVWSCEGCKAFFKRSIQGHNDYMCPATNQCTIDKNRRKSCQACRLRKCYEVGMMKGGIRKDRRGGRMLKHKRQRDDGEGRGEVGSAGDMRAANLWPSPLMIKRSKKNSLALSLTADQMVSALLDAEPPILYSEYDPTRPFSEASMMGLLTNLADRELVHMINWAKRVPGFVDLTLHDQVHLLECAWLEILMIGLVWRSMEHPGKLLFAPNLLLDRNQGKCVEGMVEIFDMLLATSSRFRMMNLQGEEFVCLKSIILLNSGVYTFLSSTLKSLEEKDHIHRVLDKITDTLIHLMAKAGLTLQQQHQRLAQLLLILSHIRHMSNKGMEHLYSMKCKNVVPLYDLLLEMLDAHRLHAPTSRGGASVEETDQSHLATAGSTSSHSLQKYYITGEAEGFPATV

[2] = molecular target: T1, Estrogen receptor (Homo sapiens); assay: Agonist activity at human Estrogen receptor ERalpha expressed in human HeLa cells assessed as DHT-induced response after 40 hrs by luciferase/beta-galactosidase-based reporter gene assay; format: functional, cell-based
[3] = molecular target: T2, Glucocorticoid receptor (Homo sapiens) (UniProt P04150); assay: Antagonist activity at human GR receptor expressed in human HeLa cells assessed as inhibition of DHT-induced response after 40 hrs by luciferase/beta-galactosidase-based reporter gene assay; format: functional, cell-based
T2 sequence (whole entry): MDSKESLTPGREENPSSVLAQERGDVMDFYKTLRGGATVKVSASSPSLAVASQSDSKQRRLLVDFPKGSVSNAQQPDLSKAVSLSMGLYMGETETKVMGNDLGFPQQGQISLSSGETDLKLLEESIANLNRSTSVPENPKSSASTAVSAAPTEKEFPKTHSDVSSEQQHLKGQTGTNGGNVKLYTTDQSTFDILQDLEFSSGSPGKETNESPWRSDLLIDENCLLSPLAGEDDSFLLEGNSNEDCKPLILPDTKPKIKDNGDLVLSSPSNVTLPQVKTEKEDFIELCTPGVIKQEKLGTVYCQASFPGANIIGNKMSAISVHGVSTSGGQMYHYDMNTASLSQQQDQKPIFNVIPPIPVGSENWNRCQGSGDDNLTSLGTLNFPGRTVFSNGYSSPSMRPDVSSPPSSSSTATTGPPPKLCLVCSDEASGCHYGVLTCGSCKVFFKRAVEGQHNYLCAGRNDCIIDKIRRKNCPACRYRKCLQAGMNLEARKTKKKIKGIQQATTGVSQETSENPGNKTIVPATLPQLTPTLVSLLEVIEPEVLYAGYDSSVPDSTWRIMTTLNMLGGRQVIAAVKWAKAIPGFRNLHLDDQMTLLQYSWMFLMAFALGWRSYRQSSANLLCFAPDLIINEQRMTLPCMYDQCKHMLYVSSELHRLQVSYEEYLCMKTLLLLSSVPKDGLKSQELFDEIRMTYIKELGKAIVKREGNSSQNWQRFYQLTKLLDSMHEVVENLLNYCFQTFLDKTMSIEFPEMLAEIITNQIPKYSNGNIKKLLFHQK

[4] = molecular target: T3, 17-beta-hydroxysteroid dehydrogenase type 3 (Homo sapiens, UniProt P37058); details: hela
T3 sequence (P37058 whole entry): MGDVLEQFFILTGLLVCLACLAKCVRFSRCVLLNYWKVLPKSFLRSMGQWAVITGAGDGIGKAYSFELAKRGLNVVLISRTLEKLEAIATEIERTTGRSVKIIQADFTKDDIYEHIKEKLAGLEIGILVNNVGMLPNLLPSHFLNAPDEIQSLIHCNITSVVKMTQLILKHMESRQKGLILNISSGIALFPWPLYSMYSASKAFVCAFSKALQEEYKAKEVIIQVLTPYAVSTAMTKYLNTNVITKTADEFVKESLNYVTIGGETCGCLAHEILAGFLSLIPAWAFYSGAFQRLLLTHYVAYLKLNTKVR
Description: (§1) Inhibition of human recombinant 17-beta-HSD3 expressed in human HeLa cells using androstenedione as substrate preincubated for 30 mins prior substrate addition measured after 120 mins by spectrophotometry

[5] = molecular target: T4, Androgen receptor (Homo sapiens) (UniProt P10275); assay: Antagonist activity at human androgen receptor expressed in human HeLa cells assessed as inhibition of DHT-induced response after 40 hrs by luciferase/beta-galactosidase-based reporter gene assay; format: functional, cell-based
T4 sequence (whole entry): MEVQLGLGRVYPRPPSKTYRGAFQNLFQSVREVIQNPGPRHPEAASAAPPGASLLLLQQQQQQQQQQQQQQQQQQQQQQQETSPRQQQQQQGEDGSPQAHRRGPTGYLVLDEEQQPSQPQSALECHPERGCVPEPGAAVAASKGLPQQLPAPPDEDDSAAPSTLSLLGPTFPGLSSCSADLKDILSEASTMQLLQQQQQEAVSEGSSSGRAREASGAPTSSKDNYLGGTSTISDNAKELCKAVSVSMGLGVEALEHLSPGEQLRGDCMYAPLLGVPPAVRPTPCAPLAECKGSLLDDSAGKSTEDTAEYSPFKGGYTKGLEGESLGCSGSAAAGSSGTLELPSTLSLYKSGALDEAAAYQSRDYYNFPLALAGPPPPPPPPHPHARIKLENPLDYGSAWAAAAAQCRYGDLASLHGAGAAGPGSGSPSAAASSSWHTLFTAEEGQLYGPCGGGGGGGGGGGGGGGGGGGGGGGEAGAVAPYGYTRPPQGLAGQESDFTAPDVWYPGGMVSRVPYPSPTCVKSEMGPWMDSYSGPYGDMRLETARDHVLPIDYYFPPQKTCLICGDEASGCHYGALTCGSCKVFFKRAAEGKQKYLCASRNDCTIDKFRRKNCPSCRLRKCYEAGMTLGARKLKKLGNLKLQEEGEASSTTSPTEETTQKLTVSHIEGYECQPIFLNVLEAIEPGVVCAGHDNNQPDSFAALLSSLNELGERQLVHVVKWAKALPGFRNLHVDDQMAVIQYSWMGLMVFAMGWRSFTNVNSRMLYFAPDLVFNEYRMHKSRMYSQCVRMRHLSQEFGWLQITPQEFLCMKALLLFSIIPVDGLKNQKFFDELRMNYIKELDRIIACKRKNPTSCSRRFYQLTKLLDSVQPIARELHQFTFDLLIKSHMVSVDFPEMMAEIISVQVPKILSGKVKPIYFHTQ

[6] = molecular target: T2, Glucocorticoid receptor (Homo sapiens); assay: Agonist activity at human Glucocorticoid receptor expressed in human HeLa cells assessed as DHT-induced response after 40 hrs by luciferase/beta-galactosidase-based reporter gene assay; format: functional, cell-based
[7] = molecular target: T5, 17-beta-hydroxysteroid dehydrogenase type 1 (Homo sapiens) (UniProt P14061); assay: Inhibition of human recombinant 17-beta-HSD1 expressed in human HeLa cells using estrone as substrate preincubated for 30 mins prior substrate addition measured after 120 mins by spectrophotometry; format: cell-based
T5 sequence (whole entry): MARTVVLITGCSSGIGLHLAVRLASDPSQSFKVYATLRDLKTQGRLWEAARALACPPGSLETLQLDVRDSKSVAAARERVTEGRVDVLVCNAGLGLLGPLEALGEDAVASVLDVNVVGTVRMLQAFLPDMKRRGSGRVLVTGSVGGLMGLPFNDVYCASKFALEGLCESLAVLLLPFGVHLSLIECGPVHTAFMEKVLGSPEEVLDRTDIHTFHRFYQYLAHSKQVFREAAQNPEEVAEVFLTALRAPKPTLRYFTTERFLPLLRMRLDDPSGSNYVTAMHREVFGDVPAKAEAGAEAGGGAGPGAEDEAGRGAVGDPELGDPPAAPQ

[8] = molecular target: T4, Androgen receptor (Homo sapiens); assay: Agonist activity at human androgen receptor expressed in human HeLa cells assessed as DHT-induced response after 40 hrs by luciferase/beta-galactosidase-based reporter gene assay; format: functional, cell-based
[9] = molecular target: T6, 17-beta-hydroxysteroid dehydrogenase type 2 (Homo sapiens) (UniProt P37059); assay: Inhibition of human recombinant 17-beta-HSD2 expressed in human HeLa cells using estradiol as substrate preincubated for 30 mins prior substrate addition measured after 120 mins by spectrophotometry; format: cell-based
T6 sequence (whole entry): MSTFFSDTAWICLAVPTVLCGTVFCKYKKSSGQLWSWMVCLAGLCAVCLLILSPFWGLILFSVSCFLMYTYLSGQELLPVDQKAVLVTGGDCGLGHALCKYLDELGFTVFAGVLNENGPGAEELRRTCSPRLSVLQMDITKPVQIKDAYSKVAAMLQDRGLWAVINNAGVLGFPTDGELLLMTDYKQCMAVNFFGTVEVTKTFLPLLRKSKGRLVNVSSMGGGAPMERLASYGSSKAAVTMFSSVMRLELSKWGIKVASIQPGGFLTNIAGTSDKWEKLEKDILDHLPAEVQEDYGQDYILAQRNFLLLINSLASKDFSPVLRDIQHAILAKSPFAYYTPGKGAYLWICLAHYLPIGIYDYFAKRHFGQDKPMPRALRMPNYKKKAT

Rattus norvegicus = assay: Inhibition of LH-RH agonist leuprorelin-induced testosterone steroidogenesis in Sprague-Dawley rat at 20 mg/kg, po administered 1 hr prior leuprorelin-induction measured up to 240 mins by GC/MS analysis; format: functional, organism-based; parameters: dose 20 mg/kg
[10] = molecular target: T3, 17-beta-hydroxysteroid dehydrogenase type 3
Description: as §1

Activity [1]	Activity [2]	Activity [3]	IC50 [4]	Activity [5]	Activity [6]	inhibition [7]	Activity [8]	inhibition [9]	IC50 [10]	SMILES	inhibition (Rattus norvegicus)
inactive	inactive	inactive	Not Active	inactive	inactive	inactive	inactive	inactive		COc1ccc(N2C(=O)O/C(=C\c3ccc(O)c(C#N)c3)C2=O)cc1	
inactive	inactive	inactive	Not Active	inactive	inactive	inactive	inactive	inactive		COc1ccc(N2C(=O)O/C(=C\c3ccc(O)c(CN(C)C)c3)C2=O)cc1	
inactive	inactive	inactive	Not Active	inactive	inactive	inactive	inactive	inactive		COc1ccc(N2C(=O)O/C(=C\c3ccc(O)c(C(=O)O)c3)C2=O)cc1	
inactive	inactive	inactive	Not Active	inactive	inactive	inactive	inactive	inactive		O=C(O)c1ccc(N2C(=O)O/C(=C\c3ccc(O)c(Br)c3)C2=O)cc1	

Second part, the compound before the results:

SMILES	Activity [1]	Activity [2]	Activity [3]	IC50 [4]	Activity [5]	Activity [6]	inhibition [7]	Activity [8]	inhibition [9]	IC50 [10]	inhibition (Rattus norvegicus)
O=C1NC(=S)S/C1=C\c1ccc(O)c(Br)c1	inactive	inactive	inactive	Not Active	inactive	inactive	inactive	inactive	inactive		
COc1ccc(N2C(=O)/C(=C(/c3ccc(O)c(Br)c3)C(F)(F)F)SC2=S)cc1	inactive	inactive	inactive	Not Active	inactive	inactive	inactive	inactive	inactive		
COc1ccc(N2C(=O)O/C(=C\c3cc(Cl)c(O)c(Cl)c3)C2=O)cc1	inactive	inactive	inactive	Not Active	inactive	inactive	inactive	inactive	inactive		
CC(=O)O[C@H]1CC[C@@]2(C)C(=CC[C@@H]3[C@@H]2CC[C@]2(C)C(c4cccnc4)=CC[C@@H]32)C1											Active
NS(=O)(=O)c1ccc(N2C(=O)O/C(=C\c3ccc(O)c(Br)c3)C2=O)cc1	inactive	inactive	inactive	Not Active	inactive	inactive	inactive	inactive	inactive		
CN1CCC(N2C(=O)/C(=C/c3ccc(O)c(Br)c3)SC2=S)CC1	inactive	inactive	inactive	Not Active	inactive	inactive	inactive	inactive	inactive		
O=C1O/C(=C\c2ccc(O)c(Br)c2)C(=O)N1c1ccc(Cl)nc1	inactive	inactive	inactive		inactive	inactive	inactive	inactive	inactive	20 nM	
